Literature values, collected in US6916809B2, “Heterocyclic acridone inhibitors of IMPDH enzyme” (Bristol-Myers Squibb Company, priority 2001, dated 2005).
Read-outs that look alike come from different tables or passages of the source.

Key:
[1] = system: IL-2, IL-4, and IFN; settings: Rol 10^-7 M, MPA 10^-8 M
[2] = system: antigen-specific T lymphocyte responses; settings: for synergistic effect with Rol on inhibition of antigen-induced proliferation: combined with Rol 10^-7 M; for % inhibition of proliferation: synergistic combination of rolipram and MPA; for approximate IC10: antigen-induced proliferation, Canelos et al. 2001
[3] = system: IMPDH types I and II; settings: low and high concentrations

Question: What does the source list for `COc1c(C)c2c(c(O)c1C/C=C(\C)CCC(=O)O)C(=O)OC2` [MPA, mycophenolic acid]?
Answer: downregulation in the generation of proinflammatory cytokines [1]: no significant downregulation; synergistic effect with Rol on inhibition of antigen-induced proliferation [2]: marked synergistic effect; % inhibition of proliferation ([2]; with deoxyguanosine (reversal), p<0.05): 35±12%; % inhibition of proliferation ([2]; without deoxyguanosine): 81±16%; gene expression for IMPDH types I and II [3]: remained unaffected

Question: Which “downregulation in the generation of proinflammatory cytokines” value [1] does the source give for `COc1ccc(C2CNC(=O)C2)cc1OC1CCCC1` (stereo not shown) [Rol, 4-[3-(cyclopentyloxy)-4-methoxy-phenyl]-2-pyrrolidinone] here?
Answer: no significant downregulation

Question: What about the “approximate IC10” value [2] of the same molecule?
Answer: ~10^−7 M

Question: What about the “gene expression for IMPDH types I and II” value [3] of the same molecule?
Answer: remained unaffected

Question: With `CCCC(=O)Nc1ncnc2c1ncn2[C@@H]1O[C@@H]2COP(=O)(O)O[C@H]2[C@H]1OC(=O)CCC` [dibuteryl-cAMP] as the molecule, how does the “approximate IC10” value [2] read?
Answer: ~2e-06 M

Question: Which “synergistic effect with Rol on inhibition of antigen-induced proliferation” value [2] does the source give for `C=CC[C@@H]1/C=C(\C)C[C@H](C)C[C@H](OC)[C@H]2O[C@@](O)(C(=O)C(=O)N3CCCC[C@H]3C(=O)O[C@H](/C(C)=C/[C@@H]3CC[C@@H](O)[C@H](OC)C3)[C@H](C)[C@@H](O)CC1=O)[C@H](C)C[C@@H]2OC` [tacrolimus] here?
Answer: little or no synergistic effect
